Measurements published in patent US7476670B2, “Purine derivatives, method for preparing, pharmaceutical compositions and novel use” (Aventis Pharma S.A., priority 2003, dated 2009).

Columns and labels:
Assay type in all cases: biochemical
JNK3 kinase = JNK3 kinase (Homo sapiens, UniProt P53779); experiment: Assay for inhibition of JNK3 activity; conditions: fluorescence polarization, ATP 6 μM; read-out: IC50s expressed as micromolar
Experimental: The inhibition of the kinase activity is determined by fluorescence polarization, the JNK3 kinase phosphorylates a peptide detected by adding an anti-phosphopeptide antibody coupled to a fluorescent label.
The assay is carried out in a final volume of 30 μl; all the reagents are prepared in a buffer: • 50 mM HEPES pH 7.5 • 0.03% triton X100 • 10 mM MgCl2 • 5% Glycerol • 1 mM DTT 10 μl of the 10-times concentrated inhibitor are added to 5 μl of enzyme (40 ng final concentration), and 5 μl of incubation buffer containing 100 ng of substrate and 10 μl of ATP (6 μM final concentration) are added.

CAN Kinase II = experiment: Assay for inhibition for CAN kinase II activity; conditions: [33P]ATP, calmodulin
Experimental: The inhibition of the kinase activity is determined by. measuring the phosphorylation of its substrate peptide.
(§1) The assay is carried out in a final volume of 50 μl.
The incubation buffer is as follows:
• 20 mM MOPS pH 7.4 • 5 mM MgCl2 • 5 mM CaCl2 • 1 mM DTT • 100 μM Na2VO4 • 25 mM Beta-glycerophosphate 5 μl of the 10-times concentrated inhibitor are added to 25 μl of incubation buffer containing 0.2 μg/μl final concentration of the enzyme (Tebu, SE-134); 10 μl of incubation buffer containing 5 μM final concentration of substrate and 1600 U/ml final concentration of calmodulin are then added and, finally, 10 μl of incubation buffer containing 20 μM ATP and radiolabeled ATP, [^33P]ATP (0.05 μCi), are added. The reaction is stopped after incubation for 40 minutes at ambient temperature. • Results obtained expressed as percentage inhibition at 20 μM • Example 30 98% 9) Assay for Inhibition of EGF tyr Kinase Activity

[1] = target: Cyclin Dependent kinase 2 (CDK2) (Homo sapiens, UniProt P24941); experiment: Assay for inhibition of CDK2 activity; conditions: [33P]ATP, read-out: percentage inhibition at 20 μM
Experimental: The inhibition of the kinase activity of Cyclin Dependent kinase 2 (CDK2) is determined by measuring the phosphorylation of its substrate peptide.
as §1
The incubation buffer as follows:
• 50 mM Hepes/NaOH pH 7.5 • 10 mM MgCl2 • 1 mM DTT 5 μl of the 10-times concentrated inhibitor are added to 25 μl of incubation buffer containing 0.8 U/μL final concentration of the enzyme; 10 μL of incubation buffer containing 0.0025 mg/ml of peptide substrate are then added and, finally, 10 μL of incubation buffer containing 2 mM ATP and radiolabeled ATP, [^33P]ATP (0.25 μCi), are added. The reaction is stopped after incubation for 10 minutes at 37° C. • Results obtained expressed as percentage inhibition at 20 μM • Example 2 97% • Example 27 97% • Example 30 99% 4) Assay for Inhibition of CDK1 Activity

Chain of JNK3 kinase (P53779 whole entry): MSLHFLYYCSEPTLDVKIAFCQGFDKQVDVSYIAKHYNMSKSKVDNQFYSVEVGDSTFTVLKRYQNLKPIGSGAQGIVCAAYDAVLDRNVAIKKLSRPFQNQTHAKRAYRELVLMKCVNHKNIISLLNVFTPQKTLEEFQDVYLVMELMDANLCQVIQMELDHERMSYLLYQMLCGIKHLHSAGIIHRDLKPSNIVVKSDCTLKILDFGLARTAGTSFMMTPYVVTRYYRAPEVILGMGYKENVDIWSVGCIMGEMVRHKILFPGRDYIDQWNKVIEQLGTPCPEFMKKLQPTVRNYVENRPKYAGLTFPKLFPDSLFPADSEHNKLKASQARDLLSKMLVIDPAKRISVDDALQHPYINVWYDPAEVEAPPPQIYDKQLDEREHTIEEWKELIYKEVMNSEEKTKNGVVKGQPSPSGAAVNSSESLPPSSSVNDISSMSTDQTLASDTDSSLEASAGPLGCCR

| Structure (SMILES) | IC50 (JNK3 kinase) [µM] | percentage inhibition at 20 μM (CAN Kinase II) [%] | inhibition at 20 µM [1] [%] |
| --- | --- | --- | --- |
| Cl.N[C@H]1CC[C@H](Nc2nc(-n3cnc4cc(Cl)c(Cl)cc43)c3nc[nH]c3n2)CC1 [Example 8, Trans-N-[6-(5,6-dichloro-1H-benzimidazol-1-yl)-9H-purin-2-yl]-1,4-cyclohexanediamine hydrochloride] | 0.84 |  |  |
| Cl.Cl.N[C@H]1CC[C@H](Nc2nc(N3CCc4cc([N+](=O)[O-])ccc43)c3nc[nH]c3n2)CC1 [Example 30, Trans-N-[6-(2,3-dihydro-5-nitro-1H-indol-1-yl)-9H-purin-2-yl]-1,4-cyclohexanediamine dihydrochloride] |  | 98 | 99 |
